{"source": "patent US20160235102A1", "about": "“SWEETENER COMPOSITION, SWEETENER PRODUCTS, AND METHODS OF SWEETENING” (ALMENDRA AMERICAS, LLC, priority 2013, published 2016)", "system": "trained expert panelists", "assay": "Sensory formulation study ballot: taste attributes rated on 0-15 scales by trained expert panelists", "assay_type": "in vivo, human", "conditions": "0-15 scale, rating defined for panel calibration", "excerpt": "Tongue numbing can also manifest itself as “tongue tingling”. These non-sugar-like characteristics appear inter-related in the sense that formulation as well as temperature changes affect the perception of several of them. Another taste characteristic of steviol glycosides, particularly those with relatively low levels of REB A, is soapiness, a characteristic that results from the surfactant portion of the molecule. To quantify all of these sensory effects by existing methods would require an expert sensory panel and at least 4 different sensory tests (i.e., C/R Function Determination, Flavor Profile Analysis, Temporal Profile Analysis and Adaptation Profile Analysis). However, to address a need for rapid screening of HP sweetener formulations, Prakash et al., described a scaling technique to quantify all of these sensory percepts in a single test (reference shown below under the table). An improvement of this methodology is described below.\nPrior to the evaluation of test samples, all panelists must first calibrate themselves on Sucrose and Reference Samples (e.g., REB A) to ensure that they are able to appropriately scale taste attributes of interest. These Reference Samples are to be available in ample quantities for all experimental sessions. The Sucrose Reference is 10.0% sucrose acidified with 0.1% citric acid. For illustration purposes, an example of a Reference Sample can be a REB A Reference Sample that has 500 PPM REB A in the same system for general formula optimization studies.\nTake a ca. 15 mL sample of the Sucrose Reference into the mouth swishing it around vigorously and note all attributes of the sensory experience. After ca. 10 sec, expectorate the sample and immediately rinse vigorously with ca. 15 mL of water, expectorating the rinse water. Over the next 2 minutes, while minimizing tongue movement in the mouth, pay attention to any rebound or intensification in perceived sweetness, bitterness, or numbing/tingling sensation. The intensity of the attribute perceived at 2 minutes is an estimate of its lingering tendency. Upon completion of calibration with the Sucrose Reference, calibration with the REB A Reference is carried out in the same way. The attribute ratings for the Sucrose and REB A References, all on 0-15 scales, are defined as follows: […]\nAfter completion of reference sample calibrations, as well as in follow up of all sample tests, rinse the mouth vigorously with ca. 15 mL portions of the Sucrose Reference solution and two ca. 15 mL portions of water in effort to get the sensory system back to baseline.\nAfter calibration with the Sucrose Reference and REB A Reference, evaluate all experimental samples by the same protocol, always using the Sucrose Reference and water rinse procedure and ensuring adequate time for the sensory system to return to normal before proceeding with subsequent samples\nTaste procedure: the beverages were evaluated in triplicate using the sensory methodology described herein by four trained expert panelists and mean values were used for data analysis.", "key": {"[1]": {"conditions": "2 minutes after expectoration and rinse, 10.0% sucrose or 500 PPM REB A in 0.1% citric acid"}, "[2]": {"conditions": "Sucrose Reference 10.0% sucrose, REB A Reference 500 PPM, both in 0.1% citric acid"}}}
{"compound": "C=C1C[C@@]23CC[C@H]4[C@@](C)(CCC[C@@]4(C)C(=O)O[C@@H]4O[C@H](CO)[C@@H](O)[C@H](O)[C@H]4O)[C@@H]2CC[C@]1(O[C@@H]1O[C@H](CO)[C@@H](O)[C@H](O[C@@H]2O[C@H](CO)[C@@H](O)[C@H](O)[C@H]2O)[C@H]1O[C@@H]1O[C@H](CO)[C@@H](O)[C@H](O)[C@H]1O)C3", "note": "[REB A100 Reference, rebaudioside A]", "values": [{"measurement": "Bitterness Intensity @ 2 Min (Bitter2)", "setting": "[1]", "value": 2}, {"measurement": "Numbing/Tingling Sensation @ 2 Min (Numb/Ting2)", "setting": "[1]", "value": 2}, {"measurement": "Sweetness Intensity @ 2 Min (Sweet2)", "setting": "[1]", "value": 3}, {"measurement": "Astringency Intensity (Astring)", "setting": "[2]", "value": 0}, {"measurement": "Bitterness Intensity (IB)", "setting": "[2]", "value": 3}, {"measurement": "Mouthfeel (Mfeel)", "setting": "[2]", "value": 0}, {"measurement": "Numbing/Tingling Sensation (Numb/Ting)", "setting": "[2]", "value": 0}, {"measurement": "Soapiness (Soap)", "setting": "[2]", "value": 1}, {"measurement": "Sweetness Intensity Initial (Sweetness)", "setting": "[2]", "value": 10}, {"measurement": "Sweetness Onset/Appearance Time (Onset)", "setting": "[2]", "value": 3}]}
